Data taken from patent US20140072629A1, “BIOLOGIC MATRICES COMPRISING ANTI-INFECTIVE, METHODS AND COMPOSITIONS RELATED THERETO” (MUSCULOSKELETAL TRANSPLANT FOUNDATION, priority 2008, published 2014).
Where two headings read alike, the source gives them in different places.

Legend:
[1] = Solubility / saturation point of Triclosan in alcohol and water; assay type: physicochemical
Text: In particular embodiments, an alcohol solution comprising triclosan is delivered to a hydrated acellular biologic matrix, e.g., a biologic matrix treated with a 40% SDA solution. In other embodiments, the matrix is hydrated with e.g., water, saline solution, and the like. Without being bound to theory, it is thought that the triclosan will partially separate from the alcohol phase due to the triclosan's great differential solubility (alcohol soluble and water insoluble) and deposit as an undissolved agent on the surface of and within the biologic tissue. Therefore, after implantation of the triclosan-treated biologic tissue into a subject, the triclosan will slowly exude or leach off the biologic tissue and out of the alcohol layer directly into the wound zone where bacteria may be collecting. Moreover, some of the triclosan may be held by the insoluble water phase and assist in this slow release. In this regard, where the soluble form of triclosan in alcohol would typically be active right away and dissipate within 8-12 hours in a transplant subject, such as a human abdominal hernia patient, it is thought that the precipitated triclosan in a transplanted treated acellular matrix of the subject invention will reside longer at the wound site, e.g., up to about 24-48 hours after transplantation, thereby increasing the effective amount of anti-infective available at the wound site. […]

[2] = cited from earlier work

saturation point ([1]; 25% alcohol): 600 ppm
saturation point ([1]; 30% alcohol): 1700 ppm
Structure (SMILES): Oc1cc(Cl)ccc1Oc1ccc(Cl)cc1Cl [Triclosan, 2,4,4′-trichloro-2′-hydroxy-diphenyl-ether]
solubility, in words ([2]; in alcohol): very soluble
solubility, in words ([2]; in water): very insoluble
